According to patent publication US8614239B2 (Novartis AG, priority 2009, dated 2013):

Tests used:
A375 cells = assay: Cell viability assay in A375 cells (XTT); format: cell-based; conditions: XTT read-out three days after compound addition
Description: The cell viability assay in A375 cells is set up in a 96-well plate format using XTT. XTT is a yellow tetrazolium salt that is cleaved to an orange formazan dye by the mitochondria of metabolically active cells. The procedure allows for rapid determination in a microtitre plate, to give reproducible and sensitive results.
A375 cells are grown in DMEM media containing 10% FBS and 1 mM sodium pyruvate. Cells are trypsinized and seeded at 1000 cells/well. After allowing the cells to adhere overnight, compound is added to the wells at the following final concentrations: 10, 3, 1, 0.3, 0.1, 0.03, 0.01, 0.001, and 0.0001 μM. The assay is set up in triplicates for each concentration. DMSO concentrations are kept at 0.5%/well. Three days after compound addition, the XTT assay is performed. Wells are washed once with PBS. 100 μL of DMEM media without phenol red or FBS is added to each well. A working solution of XTT containing 1 mg/ml XTT and 100 μL of PMS (stock concentration 0.383 mg/ml) per 5 ml is prepared. 50 μL of the working solution of XTT is added to each well. Absorbance of the plate is read at 465 nm using a Spectramax 190 (Molecular Devices). The absorbance from wells with media and XTT alone, but without cells is considered the blank and subtracted from readings from all wells.
Percentage viability is calculated considering the blank subtracted value from wells treated with DMSO alone as 100% viable. G150 values are calculated using Graphpad Prism, using non-linear regression curve fit for sigmoidal dose response (variable slope).
The cell viability assay is further described in Scudiero, et. al., Cancer Research (1988) 48, 4827-4833; Weislow, et. al., J. Natl. Cancer Institute, (1989) 81, 577-586; and Roehm, et. al., J. Immunol. Methods [1991] 142:257-265.
(§1) The compounds of the above Examples were evaluated as inhibitors of the MAP kinase pathway in a BRAF-MEK-ERK enzymatic cascade assay and in a cell viability assay, the results of which are collated in Table 1 below.

[1] = tested on: BRAF (V599E)-MEK1-ERK2 cascade (MAP kinase pathway); assay: BRAF-MEK-ERK enzymatic cascade assay (TR-FRET); format: biochemical, human; conditions: compound at 10 μM, 45 min pre-incubation with enzymes, 100 μM ATP, 90 min reaction
From the text: A BRAF-MEK-ERK cascade assay is used to evaluate the effects of these compounds as inhibitors of the MAP kinase pathway. An enzymatic cascade assay is set up using recombinant human activated BRAF (V599E) kinase (Cat No. 14-557), human full length unactive MEK1 kinase (Cat No. 14-706) and human full length unactive MAP Kinase 2/ERK2 (Cat No. 14-536) enzymes procured from Upstate. TR-FRET (Time resolved fluorescence resonance energy transfer) detection technology is used for the read out. The assay buffer solution contains 50 mM Tris pH 7.5, 10 mM MgCl2, 1 mM DTT, 0.01% Tween 20, 0.1 nM activated BRAF, 2 nM unactive MEK1, 10 nM unactive ERK2, 100 μM ATP and 500 nM long chain biotin-peptide substrate (LCB-FFKNIVTPRTPPP) in a 384 well format. The kinase reaction is stopped after 90 minutes with 10 mM EDTA and Lance detection mix (2 nM Eu-labeled phospho-serine/threonine antibody (Cat. No. AD0176-Perkin Elmer), 20 nM SA-APC (Cat No. CR130-100-Perkin Elmer) is added. The TR-FRET signal (Excitation at 340 nm, Emission at 615 nm and 665 nm) is read with […] on a Victor3 V fluorimeter. The data is calculated using the ratio of readings at 665 nm to 615 nm. The final concentration of DMSO is 2.5% in the assay. Compounds are screened at 10 μM concentration with pre-incubation of the enzymes in the presence of test compound for 45 minutes. […]
These assays described above are fully detailed in Han, Shulin, et. al., Bioorganic & Medicinal Chemistry Letters (2005) 15, 5467-5473, and in Yeh, et. al., Clin Cancer Res (2007) 13 (5), 1576-1583.
as §1

GI50 (A375 cells; Homo sapiens, A-375, 72 h) [nM] | % inhibition (10 μM) [1] [%] | GI50 (A375 cells; listed as 1J-isomer 2) [nM] | GI50 (A375 cells; listed as 1J-isomer 1) [nM] | Structure (SMILES)
2700 | 99 |  |  | O=S(=O)(Nc1c(Nc2ccc(I)cc2F)c(F)c(F)c2ncoc12)C1CC1CO (centres unmarked) [Example 1L, N-(4,5-Difluoro-6-(2-fluoro-4-iodophenylamino)benzo[d]oxazol-7-yl)-2-(hydroxymethyl)cyclopropane-1-sulfonamide]
17 | 100 |  |  | O=S(=O)(Nc1c(Nc2ccc(I)cc2F)c(F)c(F)c2ccoc12)C1(CC(O)CO)CC1 (centres unmarked) [Example 2B, 1-(2,3-Dihydroxy-propyl)-cyclopropanesulfonic acid [4,5-difluoro-6-(2-fluoro-4-iodo-phenylamino)-benzofuran-7-yl]amide]
29 | 99 |  |  | O=S(=O)(Nc1c(Nc2ccc(I)cc2F)c(F)c(F)c2ccoc12)C1CC1 [Example 2A, Cyclopropane sulfonic acid [4,5-difluoro-6-(2-fluoro-4-iodo-phenylamino)-benzofuran-7-yl]amide]
47 | 100 |  |  | O=S(=O)(Nc1c(Nc2ccc(I)cc2F)c(F)c(F)c2ncoc12)C1(CC(O)CO)CC1 (centres unmarked) [Example 1I, 1-(2,3-Dihydroxy-propyl)-cyclopropanesulfonic acid [4,5-difluoro-6-(2-fluoro-4-iodo-phenylamino)-benzooxazol-7-yl]-amide]
1000 | 93 |  |  | Cc1nc2c(F)c(F)c(Nc3ccc(I)cc3F)c(NS(=O)(=O)C3CC3)c2o1 [Example 1E, Cyclopropanesulfonic acid [4,5-difluoro-6-(2-fluoro-4-iodo-phenylamino)-2-methyl-benzooxazol-7-yl]amide]
646 | 100 |  |  | CN(C)S(=O)(=O)Nc1c(Nc2ccc(I)cc2F)c(F)c(F)c2ncoc12 [Example 1C, Dimethylsulfamic acid [4,5-difluoro-6-(2-fluoro-4-iodo-phenylamino)-benzooxazol-7-yl]amide]
3550 | 95 |  |  | O=S(=O)(Nc1c(Nc2ccc(I)cc2F)c(F)c(F)c2ncoc12)C1(COCc2ccccc2)CC1 [Example 1M, 1-(Benzyloxymethyl)-N-(4,5-difluoro-6-(2-fluoro-4-iodophenylamino)benzo[d]oxazol-7-yl)cyclopropane-1-sulfonamide]
12 | 100 |  |  | O=S(=O)(Nc1c(Nc2ccc(I)cc2F)c(F)c(F)c2ccoc12)C1(CCO)CC1 [Example 2C, 1-(2-Hydroxy-ethyl)-cyclopropanesulfonic acid [4,5-difluoro-6-(2-fluoro-4-iodo-phenylamino)-benzofuran-7-yl]amide]
 | 99 | 46 |  | O=S(=O)(Nc1c(Nc2ccc(I)cc2F)c(F)c(F)c2ncoc12)C1(CC(O)CO)CC1 (single isomer, unassigned) [Example 1J-isomer 2, N-(4,5-Difluoro-6-(2-fluoro-4-iodophenylamino)benzo[d]oxazol-7-yl)-1-(2,3-dihydroxypropyl)cyclopropane-1-sulfonamide]
2370 | 99 |  |  | CN(C)S(=O)(=O)Nc1c(Nc2ccc(Br)cc2F)c(F)c(F)c2ncoc12 [Example 1F, Dimethylsulfamic acid [4,5-difluoro-6-(2-fluoro-4-bromo-phenylamino)-benzooxazol-7-yl]-amide]
940 | 100 |  |  | C=CCC1(S(=O)(=O)Nc2c(Nc3ccc(I)cc3F)c(F)c(F)c3ncoc23)CC1 [Example 1D, 1-Allyl-cyclopropanesulfonic acid [4,5-difluoro-6-(2-fluoro-4-iodo-phenylamino)-benzooxazol-7-yl]-amide]
119 | 99 |  |  | O=S(=O)(Nc1c(Nc2ccc(I)cc2F)c(F)c(F)c2ccoc12)C1CC1CO (centres unmarked) [Example 2D, 2-Hydroxymethyl-cyclopropanesulfonic acid [4,5-difluoro-6-(2-fluoro-4-iodo-phenylamino)-benzofuran-7-yl]-amide]
> 10000 | 92 |  |  | O=S(=O)(Nc1c(Nc2ccc(Br)cc2F)c(F)c(F)c2ncoc12)C1CC1 [Example 1G]
186 | 100 |  |  | O=S(=O)(Nc1c(Nc2ccc(I)cc2F)c(F)c(F)c2ncoc12)C1(CO)CC1 [Example 1N, N-(4,5-Difluoro-6-(2-fluoro-4-iodophenylamino)benzo[d]oxazol-7-yl)-1-(hydroxymethyl)cyclopropane-1-sulfonamide]
2010 | 100 |  |  | Cc1nc2c(F)c(F)c(Nc3ccc(I)cc3F)c(NS(=O)(=O)N(C)C)c2o1 [Example 1B, Dimethylsulfamic acid [4,5-difluoro-6-(2-fluoro-4-iodo-phenylamino)-2-methyl-benzooxazol-7-yl]-amide]
 | 99 |  | 96 | O=S(=O)(Nc1c(Nc2ccc(I)cc2F)c(F)c(F)c2ncoc12)C1(CC(O)CO)CC1 (single isomer, unassigned) [Example 1J-isomer 1, N-(4,5-Difluoro-6-(2-fluoro-4-iodophenylamino)benzo[d]oxazol-7-yl)-1-(2,3-dihydroxypropyl)cyclopropane-1-sulfonamide]
5700 | 100 |  |  | O=S(=O)(Nc1c(Nc2ccc(I)cc2F)c(F)c(F)c2ncoc12)C1CC1COCc1ccccc1 (centres unmarked) [Example 1K, 2-(Benzyloxymethyl)-N-(4,5-difluoro-6-(2-fluoro-4-iodophenylamino)benzo[d]oxazol-7-yl)cyclopropane-1-sulfonamide]
 | 10 |  |  | Cc1nc2c(F)c(F)c(Nc3ccc(Br)cc3F)c(NS(=O)(=O)C3CC3)c2o1 [Example 1H, Cyclopropanesulfonic acid [6-(4-bromo-2-fluoro-phenylamino)-4,5-difluoro-2-methyl-benzooxazol-7-yl]-amide]
